{"source": "patent US20240423950A1", "about": "“5-MAPB OR 6-APB FOR USE IN DRUG-ASSISTED PSYCHOTHERAPY” (CLEARMIND MEDICINE INC., priority 2021, published 2024)", "key": {"[1]": {"details": "animal models, after oral ingestion; cited from earlier work"}, "[2]": {"tested_on": "human subjects", "assay": "Drug-assisted psychotherapy in individuals for whom MDMA therapy is ineffective", "type": "in vivo", "text": "Inter alia, 5-MAPB or 6-APB-assisted psychotherapy is effective in post-traumatic stress disorder (PTSD) therapy, couple's therapy, and therapy for anxiety disorders."}}}
{"smiles": "CNC(C)Cc1ccc2occc2c1", "note": "(stereo not shown) [5-MAPB, 1-(Benzofuran-5-yl)-N-methylpropan-2-amine]", "values": [{"measurement": "apparent plasma half-life", "setting": "[1]", "result": "approximately 1 hour"}, {"measurement": "therapeutic efficacy in the psychotherapeutic context", "setting": "[2]", "result": "significant enhancement of therapeutic efficacy"}]}
{"smiles": "CC(N)Cc1ccc2ccoc2c1", "note": "(stereo not shown) [6-APB, 1-Benzofuran-6-yl propan-2-amine]", "values": [{"measurement": "apparent plasma half-life", "setting": "[1]", "result": "approximately 1 hour"}, {"measurement": "therapeutic efficacy in the psychotherapeutic context", "setting": "[2]", "result": "significant enhancement of therapeutic efficacy"}]}
